Data set [1] addresses T1, human vasopressin V2 receptor subtype (Homo sapiens, UniProt P30518).
T1 construct: host or cells: CHO cells (pZeoSV vector)
The experiment in a line: Vasopressin binding in Chinese Hamster Ovary cell membranes expressing human vasopressin V2 subtype receptors. To be noted: 100 nM, CHO cell membranes, [3H]arginine vasopressin, values without parentheses. An outline of the steps: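 Radioligand displacement on membranes from CHO cells stably expressing human V2 receptor, 25 to 50 μg protein/well, in 50 mM Tris-HCl pH 7.4 with MgCl2, BSA and protease inhibitors. [^3H]arginine vasopressin (8 nM working solution) incubated 60 min at room temperature; bound label measured by filtration and scintillation counting.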

Molecules are shown by their SMILES.

T1 sequence (P30518 whole entry): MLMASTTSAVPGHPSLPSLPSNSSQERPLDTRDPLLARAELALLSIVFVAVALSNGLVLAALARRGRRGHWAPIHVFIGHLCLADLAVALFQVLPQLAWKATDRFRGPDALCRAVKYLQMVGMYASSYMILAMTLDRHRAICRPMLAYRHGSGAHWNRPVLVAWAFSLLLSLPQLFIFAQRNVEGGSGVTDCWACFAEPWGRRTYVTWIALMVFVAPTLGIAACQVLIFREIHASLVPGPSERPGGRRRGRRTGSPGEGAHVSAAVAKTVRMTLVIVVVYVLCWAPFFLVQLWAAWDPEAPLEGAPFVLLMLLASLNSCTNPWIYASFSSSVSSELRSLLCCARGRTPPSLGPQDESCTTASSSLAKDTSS

One may read the inhibition as the drop in the measured response relative to a control, in per cent. Usually melting point stands for the temperature of the solid-liquid transition. As to `COc1cc2c(cc1OC)N(C(=O)c1ccc(-c3ccccc3C(F)(F)F)c(C)c1)Cc1cccn1C2` [Example 12, 7,8-Dimethoxy-[10,11-dihydro-5H-pyrrolo[2,1-c][1,4]benzodiazepin-10-yl][2-methyl-2′-(trifluoromethyl)[1,1′-biphenyl]-4-yl]methanone], the melting point lay in the range of 187 to 188 °C. Besides, the inhibition at 0.1 µM in data set [1] is -1%.
Consider `COc1cc(-c2ccccc2C(F)(F)F)c(Cl)cc1C(=O)N1Cc2ccc(C(=O)O)n2Cc2ccccc21` [Example 15, 10-{[6-Chloro-3-methoxy-2′-trifluoromethyl-[1,1′-biphenyl]-4-yl]carbonyl}-10,11-dihydro-5H-pyrrolo[2,1-c][1,4]benzodiazepine-3-carboxylic acid], for which the melting point was 220 to 222 °C (dec.). Moreover, in data set [1], the inhibition at 0.1 µM was 27%.

(Values after US7109193B2, “Tricyclic diazepines tocolytic oxytocin receptor antagonists” (Wyeth, priority 2001, dated 2006).)
